Data from patent US8618169B2, “Derivatives of N-phenylanthranilic acid and 2-benzimidazolone as potassium channel and/or neuron activity modulators” (Ramot at Tel-Aviv University Ltd., priority 2002, dated 2013).
“And” between values parts separate entries of the source, which are not always exact repeats. Identical values can stand only once.

Assays:
rat cortical neurons = assay: Evoked and spontaneous action potential activity of cultured rat cortical neurons, current-clamp; type: cell-based
[1] = system: hippocampal pyramidal neurons; assay: Spontaneous EPSCs of hippocampal pyramidal neuron cultures, voltage-clamp; type: cell-based; settings: 10 μM
Protocol: To further determine the synaptic site of M-channel activation by Compound 6, its effects on spontaneous excitatory postsynaptic currents (EPSCs) that could be recorded from dense networks of hippocampal pyramidal neuron cultures was tested.
In FIGS. 30B and 30C, burst activity before (control), in the presence (Compound 6) and after (Wash) application of 5 μM (FIG. 30B) and 10 μM (FIG. 30C) Compound 6, as recorded at the voltage clamp mode is shown. In FIG. 30D, burst activity before (control) and in the presence of 25 μM Linopirdine is shown. In FIG. 30E, the normalized number of bursts appeared in 180 seconds time period for 5 μM (left panel), 10 μM (mid panel) of Compound 6 and 25 μM linopirdine (right panel) are shown. The holding potential was −70 mV. n=5-6.
Thus, using the voltage-clamp configuration of the patch-clamp technique, spontaneous EPSCs were isolated at −70 mV (holding potential) in the presence of 10 μM bicuculline and 10 μM picrotoxin to block GABAA receptor-mediated inhibitory postsynaptic currents. As is shown in FIG. 30A, under control conditions, the frequency of EPSCs is variable depending of the density of the hippocampal culture, ranging from 0.4 Hz to 2 Hz. […] However, the majority of the EPSCs measured at −70 mV under the experimental recording conditions are mediated by AMPA receptors as most of the currents are blocked by 10 μM NBQX, leaving only a small fraction EPSC sensitive to the NMDA receptor blocker DL-AP5 (FIG. 30A).

KCNQ2/3 channels = molecular target: T1, KCNQ2/3 channels (Homo sapiens, UniProt O43525+O43526); assay: KCNQ2/3 current in transfected CHO cells, whole-cell patch-clamp; type: cell-based
T1 construct: expressed in transfected cells; host or cells: CHO cells

M-current = molecular target: T2, M-current (Rattus norvegicus, UniProt O88943+O88944); assay: Native M-current of cultured rat cortical neurons, voltage-clamp; type: cell-based; settings: cortical neurons, from −50 mV to −70 mV
T2 construct: the native M-current from pyramidal-like neurons was recorded; endogenous in cells; host or cells: primary cortical neurons from Sprague Dawley rat embryos (E18)

COX (Cyclooxygenase) = assay: COX activity assay in C-26 cells (PGE2 radioimmunoassay); type: cell-based; settings: for IC50: C-26 cells
Protocol: C-26 cells were plated on 24-well plates using RPMI medium. Different concentrations of the tested compound were added thereto and the cells were incubated for 30 minutes at 37° C. 30 μM exogenic arachidonic acid was then added and incubation was continued for 20 minutes (37° C.), so as to allow the cells to synthesize PGE2. Indomethacin was added thereafter (10 μM), to stop and completely block the activity. Then, the upper solution was removed into clean 24-wells. To the remained cells 100 μl NaOH (1M) were added to induce cytolysis, and the cells were left for later protein measurement. The solution removed to the new 24-well was used for a radioimmunoassay. The COX activity was estimated by calculating the ng PGE2/mg protein parameter.

[2] = system: electroshock-induced seizures; assay: Maximal electroshock seizure (MES) test in ICR mice; type: in vivo
Protocol: All animals were treated in accordance with the Guide for the Care and Use of Laboratory Animals as adopted and promulgated by the U.S. National Institutes of Health. The procedures followed for experimentation and maintenance of the animals were approved by the animal research ethics committee of Tel Aviv University and in accordance with the Guide for the Care and Use of Laboratory Animals (1996. National Academy of Sciences, Washington D.C). […] electroshock were induced in adult mice by means of two transcorneal electrodes delivering an alternative current of 50 mA at 60 Hz for 0.2 sec using rodent shocker (Hugo Sachs Electronik, type 221). […] The tested compounds were dissolved in 0.9% saline were administered intraperitoneally either 30 minutes or 2 hours before the electroshock was performed. Animals failing to show tonic hind limb extension were scored as protected and were expressed in percentage.
Five groups of 10 ICR mice each received intraperitoneally saline (control) or meclofenamic acid (Compound 1) at 25 mg/kg, 50 mg/kg, 100 mg/kg and 150 mg/kg and were subjected 30 minutes later to an electric shock (50 mA, 0.2 second duration, 60 Hz).
In view of the strong depressing activity of Compound 6 on cortical neurons, the anticonvulsant activity in mice subjected to seizures produced by electroshock was examined, using the MES test described above. Compound 6 dissolved in saline was injected intraperitoneally (in a volume of 10 ml/kg) at doses ranging from 6 mg/kg to 20 mg/kg to ICR adult mice and its anticonvulsant activity was compared with saline. Twenty minutes after drug administration, seizures were produced by electroshock (50 mA, 0.2 second duration, 60 Hz).

small DRG neurons = assay: Spiking activity of DRG neurons, current-clamp; type: cell-based, mouse; settings: 15 μM; 75 pA, 400 ms
Protocol: Dorsal root ganglion (DRG) neurons were dissected from 2-4 days-old ICR mice that were decapitated. DRGs were placed in Hank's balanced saline solution (HBSS) and were prepared by enzymatic dissociation. Briefly, cells were incubated for 30 minutes in 5 mg/ml dispase (Sigma), 2 mg/ml collagenase type 1A (Sigma) and 0.1 mg/ml DNase (Invitrogen/Gibco) in calcium and magnesium-free HBSS, and the ganglia were thereafter mechanically triturated with a firepolished glass Pasteur pipette. The ganglia were then centrifuged for 5 minutes at 80×g and resuspended in DMEM supplemented with 2 mM L-glutamine, 16.5 mM NaCO3, 6 g/l glucose, 5 ml penicillin/streptomycin and 10% fetal calf serum. For electrophysiological recording, dissociated neurons were plated on 13 mm glass coverslips previously coated with poly-D-lysine (1 mg/ml) and laminin (10 μg/ml) and were used after 2-6 days in culture.
For current measurements in CHO cells, recordings were performed 40 hours following transfection, using the whole-cell configuration of the patch-clamp technique [Hamill et al., Nature 294: 462-464 (1981)]. Signals were amplified using an Axopatch 200B patch-clamp amplifier (Axon Instruments, Foster City, Calif., USA), sampled at 2 kHz and filtered at 800 Hz via a 4-pole Bessel low pass filter. Data were acquired using pClamp 8.1 software (Axon Instruments, Foster City, Calif., USA) and an Elonex Pentium III computer in conjunction with a DigiData 1322A interface (Axon Instruments, Foster City, Calif., USA). The patch pipettes were pulled from borosilicate glass (Warner Instrument. Corp., Hamden, Conn., USA) with a resistance of 2-5 MΩ and were filled with (in mM): 130 KCl, 1 MgCl2, 5 K2ATP, 5 EGTA, 10 HEPES, adjusted with KOH at pH 7.4 (290 mOsm). The external solution contained (in [mM]): 140 NaCl, 4 KCl, 1.8 CaCl2, 1.2 MgCl2, 11 glucose, 5.5 HEPES, adjusted with NaOH at pH 7.4 (310 mOsm). Series resistances (3-13 MΩ) were compensated (75-90%) and periodically monitored. […]

KCNQ2/Q3 = KCNQ2/Q3 (Homo sapiens, UniProt O43525+O43526); assay: Opener potency on KCNQ2/Q3 by leftward shift of half-activation potential (ΔV50) versus concentration, Hill fit; type: cell-based; design: expressed in transfected cells

`O=C1N(c2ccccc2)c2ccccc2C1(Cc1ccncc1)Cc1ccncc1` [linopirdine] was tested, and the “effect on spontaneous spiking activity” value (rat cortical neurons; 10 μM) was “significantly enhanced the frequency of spontaneous spiking” and the “frequency of EPSCs” value [1] was “up to 278±41 % of control”.
For `O=C(NCCOCCO)c1ccccc1Nc1cccc(C(F)(F)F)c1` [Compound 4], the “increase of the current amplitude” value (KCNQ2/3 channels; 50 μM, stepped from −85 mV to −40 mV) was > 1.5 fold, the “increase of the current amplitude” value (KCNQ2/3 channels; 50 μM, stepped from −85 mV to −50 mV) was “more than 4 fold” and the “opener action on recombinant KCNQ2/3 channels (in words)” value (“opener action” for short) (KCNQ2/3 channels; CHO cells) was “potent KCNQ2/3 channel opener”. For the same molecule, the “effect on evoked and spontaneous cortical neuron activity” value (rat cortical neurons) was “depress”, the “effect on spontaneous spiking activity” value (rat cortical neurons; 20 μM) was “markedly depressed” and the “negative shift in the threshold of M-current activation” value (“negative shift in the threshold” below) (M-current) was “approximately 20 mV”. The IC50 (COX (Cyclooxygenase)) was > 30000 nM.
`Cc1c(Cl)cccc1Nc1ccccc1C(=O)NCCOCCO` [Compound 3] was tested, and the “increase of the current amplitude” value (KCNQ2/3 channels; 25 μM, train protocol, stepped to −50 mV) was “up to 299±47%”, the “opener action” value (KCNQ2/3 channels; CHO cells) was “potent KCNQ2/3 potassium channel opening properties” and the IC50 (COX (Cyclooxygenase)) was 113 nM and 114 nM.
In the case of `O=C1NC(=O)C(c2ccccc2)(c2ccccc2)N1` [phenyloin], the “protection from hind limb extension” value ([2]; 20 mg/kg intraperitoneal, 30 minutes before electroshock) is reported as “fully prevented hind limb extension”.
With `CCn1c(=O)[nH]c2ccccc21` [Compound 10, 1-ethyl benzimidazolone] the “increase of the current amplitude” value (KCNQ2/3 channels; 100 μM, train protocol, cells stepped to −30 mV) was “up to 57%”.
With `CCCC(CCC)C(=O)[O-].[Na+]` [sodium valproate] the “protection from hind limb extension” value ([2]; 500 mg/kg intraperitoneal, 30 minutes before electroshock) was “fully prevented hind limb extension”.
In the case of `O=C(Cc1ccccc1Nc1c(Cl)cccc1Cl)OCCOCCO` [Compound 7], the “opener action” value (KCNQ2/3 channels; CHO cells) is reported as “potent KCNQ2/3 channel opener”, the “effect on evoked and spontaneous cortical neuron activity” value (rat cortical neurons) is reported as “depress” and the “effect on evoked and spontaneous spiking activity of cortical neurons” value (shortened to “effect … of cortical neurons”) (rat cortical neurons; 20 μM) is reported as “very potent inhibitory activity”. The “negative shift in the threshold” value (M-current) was “approximately 20 mV” and the IC50 (COX (Cyclooxygenase)) was 11 nM and 11.7 nM.
For `CN(CCO)C(=O)Cc1ccccc1Nc1c(Cl)cccc1Cl` [Compound 9], the “opener action” value (KCNQ2/3 channels; CHO cells) was “only a weak opener action” and the “effect … of cortical neurons” value (rat cortical neurons; 20 μM) was “inhibitory activity”.
For `O=C(O)Cc1ccccc1Nc1c(Cl)cccc1Cl` [Compound 2, diclofenac], the “effect on evoked action potentials” value (rat cortical neurons; 25 μM) was “no spike could be evoked”, the “effect on spontaneous spiking activity” value (rat cortical neurons; 25 μM) was “quickly and reversibly depressed” and the “% Protection” value ([2]; 25 mg/kg i.p., 30 minutes before electroshock) was 10 (10) %. For the same molecule, the “% Protection” value ([2]; 50 mg/kg i.p., 30 minutes before electroshock, listed as Diclofenac) was 64 (11) %, the “% Protection” value ([2]; 50 mg/kg i.p., 30 minutes before electroshock, listed as diclofenac) was 64% and the “% Protection” value ([2]; 50 mg/kg i.p., 2 hours before electroshock) was 50 (4) %. For the same molecule, the “% Protection” value ([2]; 100 mg/kg i.p., 30 minutes before electroshock) was 92 (12) %, the “% Protection” value ([2]; 100 mg/kg i.p., 2 hours before electroshock) was 83 (6) % and the “% Protection” value ([2]; 200 mg/kg i.p., 30 minutes before electroshock) was 100 (15) %. The “% Protection” value ([2]; 200 mg/kg i.p., 2 hours before electroshock) was 100 (6) % and the ED50 ([2]; Mus musculus, intraperitoneal, 30 minutes or 2 hours before electroshock, 25-200 mg/kg, read-out: ED50 for suppression of tonic extension induced by MES) was 43 mg/kg.
With `CCOC(=O)Nc1ccc(NCc2ccc(F)cc2)cc1N` [retigabine, N-(2-amino-4-(4-fluorobenzylamino)-phenyl)carbamic acid ethyl ester] the “effect on trains of evoked spikes” value (small DRG neurons) was “Very similar results”, the EC50 (KCNQ2/Q3) was 2000 ± 1300 nM and the “Hill coefficient ηH” value (KCNQ2/Q3; Hill fit, compound alone) was 1.20±0.30. The “maximum ΔV50” value (KCNQ2/Q3; increasing concentrations co-exposed with 25 μM meclofenamic acid) was −32±4 mV.
For `COCCOCCOC(=O)Cc1ccccc1Nc1c(Cl)cccc1Cl` [Compound 8], the “opener action” value (KCNQ2/3 channels; CHO cells) was “only a weak opener action”, the “effect on evoked and spontaneous cortical neuron activity” value (rat cortical neurons) was “depress” and the “effect … of cortical neurons” value (rat cortical neurons; low concentrations (10 μM evoked, 5 μM spontaneous)) was “potent inhibitory activity”.
With `Cc1cccc(Nc2ccccc2C(=O)NCCOCCO)c1C` [Compound 5] the “effect on current amplitude” value (KCNQ2/3 channels; 15 μM, at −40 and −50 mV) was “enhances the current amplitude”, the “leftward shift in the voltage-dependence of KCNQ2/3 activation” value (KCNQ2/3 channels; 25 μM, CHO cells) was ~8 mV and the “V50 of KCNQ2/3 activation with compound” value (KCNQ2/3 channels; 25 μM, CHO cells, control −30.9±4.1 mV) was −38.3±1.9 mV. For the same molecule, the “effect on deactivation kinetics of KCNQ2/3 channels” value (KCNQ2/3 channels; CHO cells) was “slowed down”, the “effect on evoked and spontaneous cortical neuron activity” value (rat cortical neurons) was “depress” and the “effect on evoked action potentials” value (rat cortical neurons; 25 μM) was “reversibly inhibited”. For the same molecule, the “negative shift in the threshold” value (M-current) was “approximately 20 mV”, the “COX inhibition activity (in words)” value (COX (Cyclooxygenase)) was “do not exhibit COX inhibition activity” and the IC50 (COX (Cyclooxygenase)) was 10300 nM.
